From patent US7250413B2, “C-25 carbamate rifamycin derivatives with activity against drug-resistant microbes” (Cumbre Pharmaceuticals Inc., priority 2004, dated 2007)
Converted amounts (≈) assume the structure as drawn.

Key:
Test in all cases: MIC, microbroth dilution
Assay type in all cases: cell-based
[1] = test system: Enterococcus faecalis ATCC29212; conditions: rifS, BHI Broth, 37° C., read-out: MIC
Description: (§1) Representative compounds were assayed for antimicrobial activity as follows: Minimum Inhibitory Concentrations (“MICs”) were determined by the microbroth dilution method as per NCCLS guidelines (National Committee for Clinical Laboratory Standards, 2000), except that all growth incubations were conducted at 37° C. Bacterial cultures were tested in the following bacteriological media: S. aureus, S. epidermidis, and E. coli in Cation-Adjusted Mueller-Hinton Broth, S. pneumoniae in THY Broth supplemented with 1 mg/mL catalase under 5% CO2 atmosphere, S. pyogenes in THY Broth, E. faecalis in BHI Broth, H. influenzae in BHI Broth supplemented with 0.75 μL of 1 mg/mL NAD and 150 μL of 1 mg/ml hematin per 5 mL, and M smegmatis in Middlebrook Broth plus ADC Enrichment.

[2] = test system: Mycobacterium smegmatis ATCC700084; conditions: Mycolicibacterium smegmatis, ATCC700084; rifS; Middlebrook Broth plus ADC Enrichment, 37° C.; read-out: MIC
Description: as §1

[3] = test system: Staphylococcus aureus ATCC29213; conditions: rifS, Cation-Adjusted Mueller-Hinton Broth, 37° C., read-out: MIC
Description: as §1

Row | Compound | MIC [1] | MIC [2] | MIC [3]
1 | CCN(CC)C(=O)O[C@H]1[C@H](C)[C@H](O)[C@H](C)[C@@H](O)[C@@H](C)/C=C/C=C(/C)C(=O)NC2=C(N3CCOCC3)C(=O)c3c(c(O)c(C)c4c3C(=O)[C@@](C)(O/C=C/[C@H](OC)[C@H]1C)O4)C2=O [Example 10, 25-O-Desacetyl-(1-carbonyl-2-diethylamine) 3-morpholino rifamycin S] | 0.25 to 62 µg/mL (≈ 0.298 to 74 µM) | 0.063 to 31 µg/mL | 0.002 to 1.95 µg/mL (≈ 0.00239 to 2.33 µM)
2 | CO[C@H]1/C=C/O[C@@]2(C)Oc3c(C)c(O)c4c(c3C2=O)C(=O)C(N2CCOCC2)=C(NC(=O)/C(C)=C\C=C\[C@H](C)[C@H](O)[C@@H](C)[C@@H](O)[C@@H](C)[C@H](OC(=O)NCC#Cc2cnc3ccccc3c2)[C@@H]1C)C4=O [Example 45, 25-O-Desacetyl-(carbonyl-3-quinolin-3-yl-prop-2-ynylamine) 3-morpholino rifamycin S] | 0.25 to 62 µg/mL (≈ 0.264 to 65.5 µM) | 0.063 to 31 µg/mL | 0.002 to 1.95 µg/mL (≈ 0.00211 to 2.06 µM)
3 | CO[C@H]1/C=C/O[C@@]2(C)Oc3c(C)c(O)c4c(c3C2=O)C(=O)C(N2CCOCC2)=C(NC(=O)/C(C)=C\C=C\[C@H](C)[C@H](O)[C@@H](C)[C@@H](O)[C@@H](C)[C@H](OC(=O)N2CCCC2)[C@@H]1C)C4=O [Example 14, 25-O-Desacetyl-(carbonyl-1-pyrrolidino) 3-morpholino rifamycin S] | 0.25 to 62 µg/mL (≈ 0.299 to 74.2 µM) | 0.063 to 31 µg/mL | 0.002 to 1.95 µg/mL (≈ 0.00239 to 2.33 µM)
4 | CO[C@H]1/C=C/O[C@@]2(C)Oc3c(C)c(O)c4c(c3C2=O)C(=O)C(N2CCOCC2)=C(NC(=O)/C(C)=C\C=C\[C@H](C)[C@H](O)[C@@H](C)[C@@H](O)[C@@H](C)[C@H](OC(=O)NCc2ccc(Cl)cc2)[C@@H]1C)C4=O [Example 22, 25-O-Desacetyl-(carbonyl-4-chlorobenzyl) 3-morpholino rifamycin S] | 0.25 to 62 µg/mL (≈ 0.276 to 68.4 µM) | 0.063 to 31 µg/mL | 0.002 to 1.95 µg/mL (≈ 0.00221 to 2.15 µM)

Second part, the compound after the results:

Row | MIC [1] | MIC [2] | MIC [3] | Compound
5 | 0.25 to 62 µg/mL (≈ 0.213 to 52.9 µM) | 0.063 to 31 µg/mL | 0.002 to 1.95 µg/mL (≈ 0.00171 to 1.66 µM) | CO[C@H]1/C=C/O[C@@]2(C)Oc3c(C)c(O)c4c(c3C2=O)C(=O)C(N2CCOCC2)=C(NC(=O)/C(C)=C\C=C\[C@H](C)[C@H](O)[C@@H](C)[C@@H](O)[C@@H](C)[C@H](OC(=O)N2CCN(CCNc3ccc(C(=NO)Nc5ccccc5)cc3C(F)(F)F)CC2)[C@@H]1C)C4=O [Example 49, 25-O-Desacetyl-(carbonyl-N-hydroxy-N′-phenyl-4-(2-piperazin-1-yl-ethylamino)-3-trifluoromethyl-benzamidine) 3-morpholino rifamycin S]
6 | 0.25 to 62 µg/mL (≈ 0.207 to 51.3 µM) | 0.063 to 31 µg/mL | 0.002 to 1.95 µg/mL (≈ 0.00165 to 1.61 µM) | COc1c(N2CCN(C(=O)C3CN(C(=O)O[C@H]4[C@H](C)[C@H](O)[C@H](C)[C@@H](O)[C@@H](C)/C=C/C=C(/C)C(=O)NC5=C(N6CCOCC6)C(=O)c6c(c(O)c(C)c7c6C(=O)[C@@](C)(O/C=C/[C@H](OC)[C@H]4C)O7)C5=O)C3)CC2)c(F)cc2c(=O)c(C(=O)O)cn(C3CC3)c12 [Example 66]
7 | 0.25 to 62 µg/mL (≈ 0.276 to 68.5 µM) | 0.063 to 31 µg/mL | 0.002 to 1.95 µg/mL (≈ 0.00221 to 2.15 µM) | CO[C@H]1/C=C/O[C@@]2(C)Oc3c(C)c(O)c4c(c3C2=O)C(=O)C(N2CCOCC2)=C(NC(=O)/C(C)=C\C=C\[C@H](C)[C@H](O)[C@@H](C)[C@@H](O)[C@@H](C)[C@H](OC(=O)NCc2cc(C(C)=O)no2)[C@@H]1C)C4=O [Example 48]
8 | 0.25 to 62 µg/mL (≈ 0.207 to 51.3 µM) | 0.063 to 31 µg/mL | 0.002 to 1.95 µg/mL (≈ 0.00165 to 1.61 µM) | COc1c(N2CCC(NC3CCN(C(=O)O[C@H]4[C@H](C)[C@H](O)[C@H](C)[C@@H](O)[C@@H](C)/C=C/C=C(/C)C(=O)NC5=C(N6CCOCC6)C(=O)c6c(c(O)c(C)c7c6C(=O)[C@@](C)(O/C=C/[C@H](OC)[C@H]4C)O7)C5=O)CC3)C2)c(F)cc2c(=O)c(C(=O)O)cn(C3CC3)c12 (stereo partly drawn) [Example 56]
